Paper PMC7156458, “Synthetic biology based construction of biological activity-related library of fungal decalin-containing diterpenoid pyrones” (Nature Communications, 2020)
Values joined by “and” are separate entries in the source; they are usually repeats but may differ in a detail not shown here. Equal values may be shown once. Read-outs that look alike come from different tables or passages of the source. Values belong to the molecule of their own block, whether it stands above or below them.

Columns and labels:
IMD pathway = IMD pathway inhibition, Attacin promoter luciferase assay in l(2)mbn cells; assay type: cell-based, Drosophila; conditions: for IC50: IMD pathway; for activity at 0.2 µM / activity at 0.4 µM / activity at 0.8 µM / activity at 1 µM / Promoter Activity (%): heat-killed E. coli
DMS273 = assay: cells; parameters: JFCR39 human cancer cell line panel, antiproliferative dose response (optical density), GI50; conditions: Homo sapiens, DMS-273
Procedure: (§1) Initially, we evaluated new DDP analogues for their antiproliferative activities across the panel of 39 human cancer cell lines, JFCR39[50],[51]. […] Purified DDPs was dissolved in DMSO (Specially Prepared Reagent, Nuclease and Protease tested, NACALAI, 09659-14) to prepare 5 mM solutions. The Each DDP solution (5 mM) was used for antiproliferative effects on cancer cell lines (Supplementary Notes 23, 24, 25, 26), biological activity against Drosophila (Supplementary Note 27), anti-HIV assay (Supplementary Note 28) and screening of amyloid Ab42 aggregation inhibitors (Supplementary Notes 29).

MCF-7 = assay: cells; parameters: JFCR39 human cancer cell line panel, antiproliferative dose response (optical density), GI50; conditions: Homo sapiens, MCF7
Procedure: as §1

SF-295 = assay: cells; parameters: JFCR39 human cancer cell line panel, antiproliferative dose response (optical density), GI50; conditions: Homo sapiens, SF-295
Procedure: as §1

U251 = assay: cells; parameters: JFCR39 human cancer cell line panel, antiproliferative dose response (optical density), GI50; conditions: Homo sapiens, U-251
Procedure: as §1

KM-12 = assay: cells; parameters: JFCR39 human cancer cell line panel, antiproliferative dose response (optical density), GI50; conditions: Homo sapiens, KM12
Procedure: as §1

SNB-75 = assay: cells; parameters: JFCR39 human cancer cell line panel, antiproliferative dose response (optical density), GI50; conditions: Homo sapiens, SNB-75
Procedure: as §1

ACHN = assay: cells; parameters: JFCR39 human cancer cell line panel, antiproliferative dose response (optical density), GI50; conditions: Homo sapiens, ACHN
Procedure: as §1

HCC2998 = assay: cells; parameters: JFCR39 human cancer cell line panel, antiproliferative dose response (optical density), GI50; conditions: Homo sapiens, HCC 2998
Procedure: as §1

MKN-A = assay: cells; parameters: JFCR39 human cancer cell line panel, antiproliferative dose response (optical density), GI50
Procedure: as §1

RXF-631L = assay: cells; parameters: JFCR39 human cancer cell line panel, antiproliferative dose response (optical density), GI50; conditions: RXF-631L
Procedure: as §1

LOX-IMVI = assay: cells; parameters: JFCR39 human cancer cell line panel, antiproliferative dose response (optical density), GI50; conditions: Homo sapiens, LOX IMVI
Procedure: as §1

BSY-1 = assay: cells; parameters: JFCR39 human cancer cell line panel, antiproliferative dose response (optical density), GI50; conditions: BSY-1
Procedure: as §1

OVCAR-4 = assay: cells; parameters: JFCR39 human cancer cell line panel, antiproliferative dose response (optical density), GI50; conditions: Homo sapiens, OVCAR-4
Procedure: as §1

HT-29 = assay: cells; parameters: JFCR39 human cancer cell line panel, antiproliferative dose response (optical density), GI50; conditions: Homo sapiens, HT-29
Procedure: as §1

SF-539 = assay: cells; parameters: JFCR39 human cancer cell line panel, antiproliferative dose response (optical density), GI50; conditions: Homo sapiens, SF-539
Procedure: as §1

HBC-4 = assay: cells; parameters: JFCR39 human cancer cell line panel, antiproliferative dose response (optical density), GI50; conditions: HBC4
Procedure: as §1

SF-268 = assay: cells; parameters: JFCR39 human cancer cell line panel, antiproliferative dose response (optical density), GI50; conditions: Homo sapiens, SF-268
Procedure: as §1

MKN74 = assay: cells; parameters: JFCR39 human cancer cell line panel, antiproliferative dose response (optical density), GI50; conditions: Homo sapiens, MKN-74
Procedure: as §1

MKN45 = assay: cells; parameters: JFCR39 human cancer cell line panel, antiproliferative dose response (optical density), GI50; conditions: Homo sapiens, MKN-45
Procedure: as §1

NCI-H23 = assay: cells; parameters: JFCR39 human cancer cell line panel, antiproliferative dose response (optical density), GI50; conditions: Homo sapiens, NCI-H23
Procedure: as §1

NCI-H522 = assay: cells; parameters: JFCR39 human cancer cell line panel, antiproliferative dose response (optical density), GI50; conditions: Homo sapiens, NCI-H522
Procedure: as §1

MDA-MB-231 = assay: cells; parameters: JFCR39 human cancer cell line panel, antiproliferative dose response (optical density), GI50; conditions: Homo sapiens, MDA-MB-231
Procedure: as §1

PC-3 = assay: cells; parameters: JFCR39 human cancer cell line panel, antiproliferative dose response (optical density), GI50; conditions: Homo sapiens, PC-3
Procedure: as §1

SMILES: C=C1CC[C@@H]2[C@](C)(CC[C@H]3O[C@H](C=C(C)C)C[C@@]23C)[C@@H]1Cc1c(OC)oc(CO)c(C(=O)OC)c1=O [Compound 21]
Inhibitory effect (%) (IMD pathway; 0.4 µM, single wells): 89.37% and 87.09%
Inhibitory effect (%) (IMD pathway; 0.8 µM, single wells): 98.99% and 96.72%
Inhibitory effect (%) (IMD pathway; 1 µM, single wells): 98.29% and 97.94%
inhibition at 0.4 µM (IMD pathway; Drosophila melanogaster, 0.4 µM, single wells, read-out: Inhibitory effect (%)): 85.2%
inhibition at 0.8 µM (IMD pathway; Drosophila melanogaster, 0.8 µM, single wells, read-out: Inhibitory effect (%)): 96.5%
inhibition at 1 µM (IMD pathway; Drosophila melanogaster, 1 µM, single wells, read-out: Inhibitory effect (%)): 100%
IC50 (IMD pathway; Drosophila melanogaster, read-out: IC50): 0.27 ± 0.01 µM
IC50 (IMD pathway; Drosophila melanogaster, read-out: IC50 Average): 0.273 µM
IC50 (IMD pathway; Drosophila melanogaster, single determinations, read-out: IC50 (IC50 1, 2, 3)): 0.26 µM
activity at 0.2 µM (IMD pathway; Drosophila melanogaster, 0.2 µM, read-out: Promoter Activity (%) Average): 81.5%
activity at 0.2 µM (IMD pathway; Drosophila melanogaster, 0.2 µM, read-out: Promoter Activity (%) Final): 81.5%
activity at 0.2 µM (IMD pathway; Drosophila melanogaster, 0.2 µM, single wells, read-out: Promoter Activity (%)): 73.6%
activity at 0.4 µM (IMD pathway; Drosophila melanogaster, 0.4 µM, read-out: Promoter Activity (%) Average): 12.8%
activity at 0.4 µM (IMD pathway; Drosophila melanogaster, 0.4 µM, read-out: Promoter Activity (%) Final): 12.8%
activity at 0.4 µM (IMD pathway; Drosophila melanogaster, 0.4 µM, single wells, read-out: Promoter Activity (%)): 14.8%
activity at 0.8 µM (IMD pathway; Drosophila melanogaster, 0.8 µM, read-out: Promoter Activity (%) Average): 2.58%
activity at 0.8 µM (IMD pathway; Drosophila melanogaster, 0.8 µM, read-out: Promoter Activity (%) Final): 2.58%
activity at 1 µM (IMD pathway; Drosophila melanogaster, 1 µM, read-out: Promoter Activity (%) Average): 1.26%
activity at 1 µM (IMD pathway; Drosophila melanogaster, 1 µM, read-out: Promoter Activity (%) Final): 1.26%
IC50 (IMD pathway; single determinations, read-out: IC50 (IC50 1, 2, 3)): 0.29 µM
Promoter Activity (%) (IMD pathway; 0.2 µM, single wells): 82.38% and 88.33%
Promoter Activity (%) (IMD pathway; 0.4 µM, single wells): 10.63% and 12.91%
Promoter Activity (%) (IMD pathway; 0.8 µM, single wells): 3.46% and 1.01% and 3.28%
Promoter Activity (%) (IMD pathway; 1 µM, single wells): 0.00% and 1.71% and 2.06%

GI50 (MCF-7): 1.01 µM
GI50 (U251): 13.2 µM
GI50 (ACHN): 11.8 µM
GI50 (HCC2998): 12 µM
GI50 (MKN-A): 0.318 µM
GI50 (OVCAR-4): 7.04 µM
GI50 (HT-29): 10.3 µM
GI50 (MKN74): 4.22 µM
GI50 (MKN45): 11.1 µM
GI50 (NCI-H23): 0.228 µM
GI50 (NCI-H522): 0.721 µM
GI50 (MDA-MB-231): 11.9 µM
GI50 (PC-3): 10.9 µM
SMILES: C=C1CCC2C3(C)CC(C=C(C)C)OC3CCC2(C)C1Cc1c(OC)oc(C)c(C)c1=O (centres unmarked) [Compound 23]
GI50 (DMS273): 0.265 µM
GI50 (SF-295): 1.12 µM
GI50 (KM-12): 10.3 µM
GI50 (SNB-75): 13.3 µM
GI50 (RXF-631L): 10.2 µM
GI50 (LOX-IMVI): 0.604 µM
GI50 (BSY-1): 10.3 µM
GI50 (SF-539): 5.57 µM
GI50 (HBC-4): 13.2 µM
GI50 (SF-268): 8.62 µM

SMILES: C=C1CCC2C(C)(CCC=C(C)C)C(O)CCC2(C)C1Cc1c(OC)oc(CO)c(C(=O)OC)c1=O (centres unmarked) [Compound 13]
inhibitory effect on the IMD pathway (IMD pathway): moderate inhibitory effect

GI50 (MCF-7): 1.53 µM
GI50 (U251): 13.5 µM
GI50 (ACHN): 11.6 µM
GI50 (HCC2998): 12.7 µM
GI50 (MKN-A): 0.573 µM
GI50 (OVCAR-4): 6.49 µM
GI50 (HT-29): 10.1 µM
GI50 (MKN74): 3.72 µM
GI50 (MKN45): 9.14 µM
GI50 (NCI-H23): 0.668 µM
GI50 (NCI-H522): 0.754 µM
GI50 (MDA-MB-231): 11.6 µM
GI50 (PC-3): 11.8 µM
SMILES: C=C1CC[C@H]2[C@]3(C)C[C@H](C=C(C)C)O[C@H]3CC[C@]2(C)[C@@H]1Cc1c(OC)oc(C)c(C)c1=O [Compound 24]
GI50 (DMS273): 0.484 µM
GI50 (SF-295): 2.21 µM
GI50 (KM-12): 9.49 µM
GI50 (SNB-75): 13.9 µM
GI50 (RXF-631L): 10.9 µM
GI50 (LOX-IMVI): 0.929 µM
GI50 (BSY-1): 9.59 µM
GI50 (SF-539): 7.26 µM
GI50 (HBC-4): 13.4 µM
GI50 (SF-268): 8.09 µM
